Reference: patent US5922759A, “Butenolide endothelin antagonists” (Warner-Lambert Company, priority 1997, dated 1999)
Read-outs that look alike come from different tables or passages of the source. Where a SMILES comes first, the peptide text is derived from it. Where no end group is shown, it is not given here. [ ]: non-standard residue; d: D form.

Key:
[1] = target: T1, endothelin receptor ETA (Homo sapiens, UniProt P25101); type: binding; conditions: Human cloned receptor data (footnote c); read-out: ERBA-A IC50
T1 sequence (P25101 21-427): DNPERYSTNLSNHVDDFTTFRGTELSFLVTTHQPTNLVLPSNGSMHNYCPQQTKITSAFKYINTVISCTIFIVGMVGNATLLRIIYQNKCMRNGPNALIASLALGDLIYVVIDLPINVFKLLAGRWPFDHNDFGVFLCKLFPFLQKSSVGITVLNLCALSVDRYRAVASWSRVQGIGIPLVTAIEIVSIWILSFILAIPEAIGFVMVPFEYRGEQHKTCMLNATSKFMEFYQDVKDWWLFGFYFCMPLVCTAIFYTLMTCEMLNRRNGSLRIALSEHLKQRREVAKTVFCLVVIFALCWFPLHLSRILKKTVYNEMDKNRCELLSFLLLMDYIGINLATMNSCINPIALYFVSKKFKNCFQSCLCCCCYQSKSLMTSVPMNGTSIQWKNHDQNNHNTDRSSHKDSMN

[2] = tested on: cerebral vasospasm; conditions: rat, cited from earlier work
[3] = tested on: cerebral vasospasm; conditions: rabbit; cited from earlier work
[4] = tested on: ETA; conditions: mouse endotoxic shock; cited from earlier work
[5] = tested on: central nervous system; conditions: intracerebroventricular, rats; cited from earlier work
[6] = tested on: brain; conditions: new model of local ischemia in the brain; cited from earlier work
[7] = tested on: basilar artery vasoconstriction; conditions: canine two-hemorrhage model, after 7 days; cited from earlier work
[8] = target: T2, ETA (rabbit femoral artery) (Oryctolagus cuniculus, UniProt A5A8K3); assay: Antagonism of ET-1 stimulated vasoconstriction (VERA-A) in the rabbit femoral artery; conditions: ET-1 agonist, antagonist added 30 minutes prior
T2 construct: Femoral and pulmonary arteries were isolated, cleaned of connective tissue, and cut into 4-mm rings; from tissue; host or cells: endothelium-denuded femoral artery rings of male New Zealand rabbits
T2 sequence (A5A8K3 21-427): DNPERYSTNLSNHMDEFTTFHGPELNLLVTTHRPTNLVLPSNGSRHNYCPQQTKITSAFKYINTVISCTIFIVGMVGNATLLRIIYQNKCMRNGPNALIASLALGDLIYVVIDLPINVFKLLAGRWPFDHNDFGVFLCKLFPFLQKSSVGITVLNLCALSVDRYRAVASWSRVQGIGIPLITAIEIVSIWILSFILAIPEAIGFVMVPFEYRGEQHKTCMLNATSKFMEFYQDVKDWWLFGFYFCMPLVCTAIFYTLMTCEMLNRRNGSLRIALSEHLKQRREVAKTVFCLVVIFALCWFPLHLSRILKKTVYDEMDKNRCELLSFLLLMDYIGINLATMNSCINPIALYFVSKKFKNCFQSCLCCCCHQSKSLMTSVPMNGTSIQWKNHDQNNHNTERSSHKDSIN
Procedure: Male New Zealand rabbits were killed by cervical dislocation and exsanguination. Femoral and pulmonary arteries were isolated, cleaned of connective tissue, and cut into 4-mm rings. The endothelium was denuded by placing the rings over hypodermic tubing (32 gauge for femoral rings and 28 gauge for pulmonary rings, Small Parts, Inc, Miami, Fla.) and gently rolling them. […] Resting tension was adjusted to 3.0 g for femoral and 4.0 g pulmonary arteries; the rings were left for 90 minutes to equilibrate.

[9] = target: T3, human ETB receptor (Homo sapiens, UniProt P24530); type: binding, human (method text also: rat cerebellar membranes); conditions: Human cloned receptor data (footnote c); read-out: ERBA-B IC50
T3 construct: expressed in transfected cells; host or cells: CHO-K1
T3 sequence (P24530 27-442): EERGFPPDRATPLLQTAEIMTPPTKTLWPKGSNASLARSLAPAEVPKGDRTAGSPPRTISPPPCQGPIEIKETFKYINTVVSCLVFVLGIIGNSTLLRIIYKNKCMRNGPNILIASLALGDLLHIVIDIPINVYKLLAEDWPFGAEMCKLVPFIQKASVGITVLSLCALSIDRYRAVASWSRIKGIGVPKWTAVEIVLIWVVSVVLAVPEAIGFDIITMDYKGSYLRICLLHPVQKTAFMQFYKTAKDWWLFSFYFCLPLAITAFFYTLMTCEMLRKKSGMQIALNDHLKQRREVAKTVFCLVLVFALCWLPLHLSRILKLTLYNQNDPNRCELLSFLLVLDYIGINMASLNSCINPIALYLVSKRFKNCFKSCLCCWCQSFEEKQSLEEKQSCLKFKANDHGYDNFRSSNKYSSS
Description: The compounds of Formula I are valuable antagonists of endothelin.
ENDOTHELIN RECEPTOR BINDING ASSAY-B (ERBA-B) [^125 I]-ET-1 BINDING IN RAT CEREBELLAR MEMBRANES
materials and Terms Used:
Count filters for radioactivity in gamma counter.
The above process has also been modified by using human recombinant CHO-K1 cells.
The tissue used for human ETB was recombinant human ETB receptor expressed in CHO-K1 cells (chinese hamster ovary cells). The gene for human ETB receptor was cloned and inserted into the pRc-CMW expression vector, then transfected into CHO-K1 cells by electroporation. For binding assays, membranes (0.7 mg protein) of CHO-K1 cells expressing recombinant human ETB receptor were used.
^c Human cloned receptor data

## COc1ccc(C2(OC(=O)N[C@@H](C)c3cccc4ccccc34)OC(=O)C(c3ccc4c(c3)OCO4)=C2Cc2cc(OC)c(OC)c(OC)c2)cc1 (stereo partly shown) [Example 2, (1-Naphthalen-1-yl-ethyl)-carbamic acid-4-benzo[1,3]dioxol-5-yl-2-(4-methoxy-phenyl)-5-oxo-3-(3,4,5-trimethoxy-benzyl)-2,5-dihydro-furan-2-yl ester]
[1]
  IC50: 1 nM

## COc1cccc(Oc2c(NS(=O)(=O)c3ccc(C(C)(C)C)cc3)ncnc2OCCO)c1 [Ro 46-2005]
[2]; SAH
  effect on systemic arterial blood pressure: no significant effect on systemic arterial blood pressure
[2]
  effect on early cerebral vasospasm following SAH: prevent early cerebral vasospasm

## CC(C)C[C@@H]1NC(=O)[C@@H](C(C)C)NC(=O)[C@@H]2CCCN2C(=O)[C@@H](CC(=O)O)NC(=O)[C@@H](Cc2c[nH]c3ccccc23)NC1=O [BQ-123] (cyclo(L[dW][dD]P[dV]))
[2]
  effect on early cerebral vasospasm following SAH: prevents early cerebral vasospasm
[3]
  effect on early cerebral vasospasm following SAH: prevents early cerebral vasospasm
[4]
  survival rate: significantly increased the survival rate

## ET-1: a potent vasoconstrictor, is a 21 amino acid bicyclic peptide (CSCSSLMDKECVYFCHLDIIW; ends and bridges not checked; also: bicyclic peptide; UniProt P05305 53-73, looked up)
[5]
  behavioral effects: evoke several behavioral effects
[6]
  lesion development: induced lesion development

## FR 139317
[7]
  inhibition of vasoconstriction of the basilar artery: significantly inhibited the vasoconstriction of the basilar artery after 7 days

## COc1ccc(C2(OC(=O)N[C@@H](C)c3ccccc3)OC(=O)C(c3ccc4c(c3)OCO4)=C2Cc2ccccc2)cc1 (stereo partly shown) [Example 1, (1-Phenyl-ethyl)-carbamic acid-4-benzo[1,3]dioxol-5-yl-3-benzyl-2-(4-methoxy-phenyl)-5-oxo-2,5-dihydro-furan-2-yl ester]
[8]
  VERA-A pA2: 6.1

## CCOC(=O)CNC(=O)OC1(c2ccc(OC)cc2)OC(=O)C(c2ccc3c(c2)OCO3)=C1Cc1cc(OC)c(OC)c(OC)c1 (stereo not shown) [Example 3, [4-Ben zo[1.3]dioxol-5-yl-2-(4-methoxy-phenyl)-5-oxo-3-(3,4,5-trimethoxy-benzyl)-2,5-dihydro-furan-2-yloxycarbonylamino]-acetic acid ethyl ester]
[9]
  IC50: 1800 nM
[8]; read-out: VERA-A pA2 (converted)
  Kb: 50.1 nM
[1]
  IC50: 0.35 nM
